Patent US20140314740A1, “COMPOSITIONS AND METHODS FOR THE PREVENTION OR TREATMENT OF DIABETIC COMPLICATIONS” (The Johns Hopkins University, priority 2011, published 2014)
“Also recorded” adds a separate entry of the source.

Key:
[1] = biological target: T1, GLUT1 (Mus musculus, UniProt P17809); test: Glucose measurements in retina, brain and red blood cells (RBC) of streptozotocin-diabetic mice; assay type: in vivo, C57BL/6 mice; conditions: for retinal glucose levels: diabetic mice; for retinal glucose (summary statement): systemic treatment of diabetic mice, dose not given
T1 sequence (P17809 1-492): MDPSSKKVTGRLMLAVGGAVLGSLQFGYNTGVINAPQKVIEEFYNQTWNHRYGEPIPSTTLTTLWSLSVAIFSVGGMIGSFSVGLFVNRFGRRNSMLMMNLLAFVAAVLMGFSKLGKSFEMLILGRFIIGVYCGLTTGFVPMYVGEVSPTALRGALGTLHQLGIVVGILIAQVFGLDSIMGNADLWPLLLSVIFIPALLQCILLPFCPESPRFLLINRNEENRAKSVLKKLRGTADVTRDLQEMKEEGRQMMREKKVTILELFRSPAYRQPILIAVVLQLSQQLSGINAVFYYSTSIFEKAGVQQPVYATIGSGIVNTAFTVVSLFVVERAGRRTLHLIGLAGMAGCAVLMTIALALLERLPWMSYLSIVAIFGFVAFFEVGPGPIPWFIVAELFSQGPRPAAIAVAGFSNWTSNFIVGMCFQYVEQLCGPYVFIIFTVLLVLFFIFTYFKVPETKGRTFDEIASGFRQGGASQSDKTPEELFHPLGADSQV

[2] = biological target: T2, GLUT1 (Homo sapiens, UniProt P11166); conditions: literature statement; cited from earlier work
T2 sequence (P11166 1-492): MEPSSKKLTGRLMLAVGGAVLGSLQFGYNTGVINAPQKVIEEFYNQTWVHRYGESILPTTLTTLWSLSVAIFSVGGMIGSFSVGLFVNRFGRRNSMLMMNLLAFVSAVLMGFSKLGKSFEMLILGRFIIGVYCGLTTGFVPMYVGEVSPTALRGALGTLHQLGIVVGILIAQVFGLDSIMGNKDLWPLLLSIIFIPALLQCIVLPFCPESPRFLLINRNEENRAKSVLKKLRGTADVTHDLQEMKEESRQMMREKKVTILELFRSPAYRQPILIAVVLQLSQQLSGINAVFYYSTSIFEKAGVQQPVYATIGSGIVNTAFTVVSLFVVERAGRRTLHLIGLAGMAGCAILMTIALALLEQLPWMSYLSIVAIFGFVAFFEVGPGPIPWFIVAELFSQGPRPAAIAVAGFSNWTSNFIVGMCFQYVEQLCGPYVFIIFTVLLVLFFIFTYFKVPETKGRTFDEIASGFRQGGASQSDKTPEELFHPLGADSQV

[3] = system: adenylate cyclase; conditions: literature statement; cited from earlier work
[4] = system: superoxide radicals; test: Superoxide radical assay (hydroethidine-induced fluorescence) in retinal homogenates of diabetic mice; assay type: in vivo, C57BL/6 mice; conditions: 1 month of diabetes; 1,9-dideoxyforskolin 0.1 mg/kg daily
Protocol: Superoxide radicals were measured in retinal homogenates by measuring dihydroethidine-induced fluorescence (Georgiou et al., 2008; Chen et al., 2009). Briefly, 200 μl reaction mixtures of freshly prepared retinal homogenates (20 μg protein) containing 2.5 μM dihydroethidium and 0.05 μg/μl salmon testes DNA were placed in 96-well microplates at 37° C. for 30 min. The fluorescence was measured at an excitation of 480 nm and an emission of 610 nm. Each sample was assayed in triplicate.

[5] = biological target: T2, GLUT1; conditions: literature statement; cited from earlier work; remark: listed apart in the source
[6] = system: tyrosine kinases; conditions: literature statement; by blocking the ATP binding site; cited from earlier work
[7] = mice diabetic 2 months, 1,9-dideoxyforskolin 1 mg/kg daily IP, 5 hr after last dose, vs untreated diabetics

C=C[C@@]1(C)CC(=O)[C@@H]2[C@@]3(C)CCCC(C)(C)[C@@H]3[C@H](O)[C@H](OC(C)=O)[C@@]2(C)O1 [1,9-dideoxyforskolin]
retinal glucose levels ([1]; 1,9-dideoxyforskolin 0.1 mg/kg/day IP, 2 or 4 weeks, vs untreated diabetics): significantly reduced retinal glucose levels; also recorded: significant reduction in retinal glucose level
glucose levels in RBCs [1, 7]: significant reduction; also recorded: decreased glucose levels
glucose levels in brain [1, 7]: not in brain; also recorded: did not effect glucose levels
glucose levels in retina [1, 7]: significant reduction; also recorded: decreased glucose levels
retinal glucose (summary statement) [1]: equivalent effect to that of forskolin
binding to GLUT1 [2]: binds GLUT1
adenylate cyclase stimulation [3]: lacks adenylate cyclase-stimulating activity
increase of superoxide radicals (hydroethidine-induced fluorescence) in retinal homogenates [4]: significantly blocked
GLUT1 glucose transport [5]: blocks GLUT1-mediated glucose transport

O=c1c(-c2ccc(O)cc2)coc2cc(O)cc(O)c12 [genistein]
retinal glucose levels ([1]; genistein 50 mg/kg/day IP, 4 weeks, vs untreated diabetics): significantly reduced retinal glucose levels; also recorded: significant reduction in retinal glucose level
retinal glucose (summary statement) [1]: significantly reduced retinal glucose to the same levels seen in non-diabetics
binding to GLUT1 [2]: binds to the ATP binding site of GLUT1
tyrosine kinase inhibition [6]: inhibits tyrosine kinases
GLUT1 glucose transport [5]: suppresses glucose transport

O=c1c(O)c(-c2cc(O)c(O)c(O)c2)oc2cc(O)cc(O)c12 [myricetin]
binding to GLUT1 [2]: binds to the ATP binding site of GLUT1
